Source: paper PMC6009875, “Structure–activity relationships of fraxamoside as an unusual xanthine oxidase inhibitor” (Journal of Enzyme Inhibition and Medicinal Chemistry, 2017)
Like-named read-outs stand apart in the source and are kept apart here.

Assays:
XO [1] = test system: XO; set-up: method as in PMID 25102361; conditions: read-out: IC50 (XO inhibitory effect); cited from earlier work
[2] = target: T1, Xanthine oxidase from bovine milk (Bos taurus, UniProt P80457); test: XO inhibition kinetics (Lineweaver-Burk, Ki); assay type: biochemical; conditions: for Inhibition mode: Lineweaver-Burk plots
T1 construct: Xanthine oxidase from bovine milk (0.2 U/mg); purchased Sigma-Aldrich (St. Louis, MO); host or cells: bovine milk
Procedure: The assay was carried out in a 500-μL final volume buffer A, constituted by 50 mM phosphate buffer, pH 7.8, 0.1 mM EDTA, supplemented with increasing concentration of xanthine as substrate in the absence or in the presence of variable amounts of the selected inhibitor. The assay was initiated by adding 10 μL of 160 U/L XO solution to the reaction mixture, without or with inhibitors, and it was followed in kinetics by reading the absorbance up to 2 min at 20 °C, thus calculating the rate of acid uric formation in the linear range of the reaction. The kinetic parameters of the XO reaction were derived from Lineweaver–Burk plots obtained measuring the rate of uric acid formation at different xanthine concentration (ranging between 0.4 and10 μM). Inhibition studies were carried out by measuring the kinetic parameters in the presence of different inhibitors. […] Km/Ki + Km.
The kinetic parameters of XO were determined by Lineweaver–Burk plot using a standard curve-fitting program. At each single concentration of substrate, the activity was evaluated in triplicate. […] Correlation and regression analyses and statistical analysis were made with Student’s t-test, using the software KaleidaGraph (Reading, PA). p values lower than 0.05 were considered to be significant.

[3] = target: T1, Xanthine oxidase from bovine milk; test: XO activity assay (IC50, uric acid formation at 295 nm); assay type: biochemical; conditions: total absence of methanol; 50 μM xanthine, pH 7.8, 20 °C
Procedure: The assay was carried out in a 500 μL final volume reaction mixture, containing 50 mM phosphate buffer, pH 7.8, 0.1 mM EDTA, 50 μM xanthine as substrate, 3.2 U/L XO, and different amounts of each compound as potential XO inhibitor. The assay was started by adding 10 μL of the enzyme stock solution to the reaction mixture and followed by reading the absorbance up to 2 min at 20 °C, thus calculating the corresponding rate in the linear range of the reaction. For each sample, the extent of the inhibitory effect (i) was calculated as i = (V0 – Vi)/V0 where V0 and Vi are respectively the rate measured in the absence or presence at least six different amounts of the compounds used [I], whose range of concentration was properly chosen.

XO [4] = test system: XO; set-up: method as in Flemmig et al.[52]; conditions: ref Flemmig et al.[52], cited from earlier work

T1 sequence (P80457 whole entry): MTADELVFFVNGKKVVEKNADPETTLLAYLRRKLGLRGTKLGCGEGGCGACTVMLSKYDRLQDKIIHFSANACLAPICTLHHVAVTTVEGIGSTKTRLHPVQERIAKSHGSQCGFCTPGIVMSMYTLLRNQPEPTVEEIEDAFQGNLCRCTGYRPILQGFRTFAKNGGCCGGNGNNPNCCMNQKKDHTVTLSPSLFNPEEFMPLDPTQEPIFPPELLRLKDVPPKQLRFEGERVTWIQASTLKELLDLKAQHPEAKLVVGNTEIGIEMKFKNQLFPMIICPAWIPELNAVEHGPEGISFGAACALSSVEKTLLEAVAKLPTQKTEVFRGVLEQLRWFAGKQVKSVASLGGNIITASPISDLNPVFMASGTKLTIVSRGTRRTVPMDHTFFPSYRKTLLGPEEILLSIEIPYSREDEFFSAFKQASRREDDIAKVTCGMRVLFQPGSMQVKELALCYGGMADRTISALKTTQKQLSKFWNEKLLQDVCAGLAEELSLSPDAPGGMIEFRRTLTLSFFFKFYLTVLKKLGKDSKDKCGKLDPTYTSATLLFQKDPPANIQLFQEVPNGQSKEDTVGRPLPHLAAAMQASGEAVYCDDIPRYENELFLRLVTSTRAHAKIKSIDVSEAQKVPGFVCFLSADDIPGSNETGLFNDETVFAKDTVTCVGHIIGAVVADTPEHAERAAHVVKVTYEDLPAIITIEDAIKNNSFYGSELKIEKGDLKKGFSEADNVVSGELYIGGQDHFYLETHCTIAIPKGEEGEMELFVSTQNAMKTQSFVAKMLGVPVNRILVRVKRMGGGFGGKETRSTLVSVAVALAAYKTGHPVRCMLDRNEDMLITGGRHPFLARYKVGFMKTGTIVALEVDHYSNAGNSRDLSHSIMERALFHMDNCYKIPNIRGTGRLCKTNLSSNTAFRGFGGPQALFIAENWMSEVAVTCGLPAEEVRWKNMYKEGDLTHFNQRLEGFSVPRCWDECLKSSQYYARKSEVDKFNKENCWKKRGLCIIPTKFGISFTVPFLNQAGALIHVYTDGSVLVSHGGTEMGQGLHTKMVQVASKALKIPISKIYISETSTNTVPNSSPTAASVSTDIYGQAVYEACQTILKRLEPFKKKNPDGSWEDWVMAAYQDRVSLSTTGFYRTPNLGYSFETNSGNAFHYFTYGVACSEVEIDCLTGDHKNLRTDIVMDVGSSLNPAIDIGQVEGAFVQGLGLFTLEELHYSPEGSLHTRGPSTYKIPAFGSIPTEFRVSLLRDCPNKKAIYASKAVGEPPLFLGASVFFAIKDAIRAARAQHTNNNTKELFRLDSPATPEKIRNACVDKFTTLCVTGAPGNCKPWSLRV

In the case of O=c1c(O[C@@H]2O[C@H](CO)[C@@H](O)[C@H](O)[C@H]2O)c(-c2ccc(O)c(O)c2)oc2cc(O)cc(O)c12 [quercetin 3-O-glucoside], the IC50 (XO [1]) is listed as 54.6 µM.

With Oc1ncnc2[nH]ncc12 [Allopurinol, allopurinol, reference compound] the Inhibition mode [2] was “competitive inhibition mode”.

For C/C=C1/[C@H]2OC=C(C(=O)OC)[C@H]1CC(=O)OC[C@@H](c1ccc(O)c(O)c1)OC[C@H]1O[C@@H](O2)[C@H](O)[C@@H](O)[C@@H]1O [Compound 1, fraxamoside], the Inhibition mode [2] was “Competitive”, the Inhibition mode ([2]; listed as fraxamoside) was “competitively inhibited” and the “Ki lower than that of oleuropein (fold)” value ([2]; fraxamoside Ki versus oleuropein Ki) was “at least 50 times”. It also gave a Ki ([2]; secondary plot of K'm versus [I], xanthine 0.4-10 μM, pH 7.8, 20 °C) of 0.9 ± 0.25 µM and an IC50 [3] of 16.1 ± 0.7 µM.

For C/C=C1/[C@H](O[C@@H]2O[C@H](CO)[C@@H](O)[C@H](O)[C@H]2O)OC=C(C(=O)OC)[C@H]1CC(=O)OCCc1ccc(O)c(O)c1 [Compound 2, oleuropein], the IC50 [3] is listed as 335 ± 17 µM, the Inhibition mode (XO [4]) is listed as “Competitive^a” and the Inhibition mode (XO [4]; listed as oleuropein) is listed as “competitive inhibition mode”. For the same compound, the Ki (XO [4]; read-out: Ki) was 53 µM.

In the case of OCCc1ccc(O)c(O)c1 [Compound 4, hydroxytyrosol], the IC50 [3] is given as 1130 ± 22 µM and the Ki (XO [4]) is given as “No inhibition^a”.

C/C=C1/[C@H](O[C@@H]2O[C@H](CO)[C@@H](O)[C@H](O)[C@H]2O)OC=C(C(=O)OC)[C@H]1CC(=O)O [Compound 3, oleoside 11-methyl ester] gave an IC50 [3] of 259 ± 13 µM.

In the case of O=c1c(O)c(-c2ccc(O)c(O)c2)oc2cc(O)cc(O)c12 [quercetin], the IC50 (XO [1]) is listed as 1.9 µM.
